From EP0097072A1, “Derivatives of benzylsulfinyl acetamides, their therapeutic use and process for their preparation” (LABORATOIRE L. LAFON Société anonyme dite:, priority 1982, dated 1983)

What was measured:
Format in all cases: in vivo
souris [1] = experiment: Action on intergroup aggressiveness (number of fights); details: mouse, notably at 512 mg/kg I.P.; groups joined half an hour after dosing, fights counted over 10 minutes
Method: (§1) Les résultats des essais qui ont été entrepris ont été résumés ci-après. Dans ces essais, le CRL 40569 (produit de l'exemple 1) en suspension dans une solution aqueuse de gomme arabique, et le CRL 40615 (produit de l'exemple 2) en solution dans de l'eau distillée ont été administrés par voie intrapéritonéale sous un volume de 20 ml/kg chez la souris mâle et sous un volume de 5 ml/kg chez le rat mâle.
Après avoir séjourné pendant 3 semaines de part et d'autre d'une cloison opaque séparant leur cage par le milieu, des groupes de 3 souris reçoivent le CRL 40615. Une demi-heure plus tard, les deux groupes d'une même cage sont réunis par retrait de la cloison et ou note le nombre de combats qui surviennent en 10 minutes.

souris mâle [2] = experiment: Global behaviour and reactivities in the mouse; details: I.P., 512 mg/kg, observed 15 min to 24 h after administration
Method: as §1
(§2) Des lots de 3 animaux par dose et par produit sont observés avant,puis 15 minutes, 30 minutes, 1 h, 2h, 3h et 24 h après administration des CRL 40569 et CRL 40615.

souris [3] = experiment: Action on spontaneous motility (actimeter); details: mouse, recorded 30 min, starting half an hour after dosing
Method: as §1
Une demi-heure après avoir reçu les produits à tester, les souris (6 par dose et par produit, 12 témoins pour chaque produit) sont placées en actimètre ou leur motilité est enregistrée pendant 30 minutes.

rat mâle = experiment: Global behaviour and reactivities in the rat; details: I.P.
Method: as §1, §2

souris mâle [4] = experiment: Toxicity: DL-0 (maximal non-lethal dose); details: male mouse, I.P. route
Method: as §1
La DL-0 (dose maximale non mortelle) chez la souris mâle par voie I.P. pour les CRL 40569 et CRL 40615 est supérieure à 1024 mg/kg.

rats = experiment: Interaction with amphetamine (amphetamine stereotypies); details: rat, 256 mg/kg I.P.; amphetamine 2 mg/kg I.P. half an hour after the compound
Method: as §1
Des lots de 6 rats reçoivent une injection par voie I.P. de 2 mg/kg d'amphétamine une demi-heure après le CRL 40569.

| SMILES | nombre de combats (souris [1]) | comportement global et réactivités (souris mâle [2]; 128 mg/kg and 32 mg/kg) | motilité spontanée (souris [3]; I.P., high dose (512 mg/kg)) | comportement global et réactivités (rat mâle; 256 mg/kg) | DL-0 (dose maximale non mortelle) (souris mâle [4]) [mg/kg] | comportement global et réactivités (souris mâle [2]) | motilité spontanée (souris [3]; I.P., 32, 128 and 512 mg/kg) | intensité des stéréotypies amphétaminiques (rats) | comportement global et réactivités (rat mâle; at none of the doses used (256, 64, 16 and 4 mg/kg)) |
| --- | --- | --- | --- | --- | --- | --- | --- | --- | --- |
| COc1ccc(C[S+]([O-])CC(=O)NCCN2CCOCC2)cc1 (stereo not drawn) [CRL 40615, N-β-morpholinoéthyl-4-méthoxybenzylsulfinyl-acétamide] | diminue le nombre de combats | sédation pendant 15 à 30 minutes puis une excitation tardive qui se manifeste 24 h après administration | diminue la motilité spontanée | diminution du tonus musculaire | > 1024 |  |  |  |  |
| COc1ccc(C[S+]([O-])CC(N)=O)cc1 (stereo not shown) [CRL 40569, 4-méthoxybenzylsulfinyl-acétamide] |  |  |  |  | > 1024 | diminution fugace de la réactivité au toucher, de la force et du tonus musculaire | diminution de la motilité spontanée | diminue légèrement l'intensité des stéréotypies amphétaminiques | n'a entraîné des modifications nettes du comportement et des réactivités |
